In the assay the test system is Phytophthora capsici. Briefly: Efficacy of WSP and WDG in controlling Phytophthora capsici leaf blight on tomato plants (Example VI). Particulars: 1.24 g/L; tomato cv Roma; rated 7 days post inoculation. The assay is classed as in vivo. How it is done:
Reynoutria sachalinensis extract was formulated as WSP and as WDG. Both formulations were evaluated for their efficacy in controlling Phytophthora leaf blight on tomato. The cv “Roma” was planted in greenhouse till two true leaf stage. The isolate of P. capsici was grown on lima bean media (150 g lima bean was autoclaved in 500 ml water at 121° C. for 0.5 h and filtered through two layers of cheese cloth to remove seed coats. 20 g of agar was added to the filtrate and increase the volume to 1000 ml. The media was autoclaved at 121° C. for 15 min) for 7 days and the sporangia were washed off with sterile water. The sporangia suspension was incubated at room temperature (about 25° C.) for 1-2 h to release zoospores. The suspension was adjusted to 1.0×10^5 spores/ml. There were three single plant replications per treatments. For each treatment, 3 ml treatment/plant was applied with hand held sprayer. After the treatments dried up in a container for incubation, 10 ml of spore suspension was applied uniformly onto all the plants. The container was sealed to maintain high moisture and the plants were incubated at 25° C. in darkness for 3 days. Disease was rated 7 days post inoculation.

For the molecule `COCC(=O)N(c1c(C)cccc1C)[C@H](C)C(=O)OC` [mefenoxam (Ridomil), mefenoxam], the “% Control” value is recorded as 95.9% and the “Severity (%, mean)” value turned out to be 2.3%.

Values taken from US20120196751A1, “ANTHRAQUINONE CONTAINING PREPARATIONS/LIGNIN FORMULATIONS” (MARRONE BIO INNOVATIONS, INC., priority 2011, published 2012).
